Test results reported in patent publication US20070238660A1 (priority 2006, published 2007).

System: viruses
Experiment: Virus inactivation by fabric with attached dye under illumination
Type: cell-based
Conditions: for virus inactivation (in words): low light illumination levels, FIG. 4

Question: Which viruses inactivated (exposure to light as low as 500 Lux) does the source give for `Cc1cc2cc3cc(C)c(N)cc3nc2cc1N.Cl` [acridine yellow G] here?
Answer: at least 99%

Question: And the “virus inactivation (in words)” value?
Answer: unexpected efficiency in virus inactivation

Question: What about the “virus inactivation (in words)” value (listed as Acridine yellow G) of the same compound?
Answer: very high virus inactivation
